Source: PubChem BioAssay AID1259371 (The Scripps Research Institute Molecular Screening Center, 2018)
Calls of active or inactive are those of the source. No rule for the calls is given here.

Molecular target: Microphthalmia-associated transcription factor (Homo sapiens) (UniProt O75030)
Assay: MITF inhibitors, potency by titration, dose response, biochemical, AlphaScreen, human (AID 1259371)
Conditions: AlphaScreen biochemical MITF assay, signal inhibition

Sequence of Microphthalmia-associated transcription factor (Homo sapiens) (O75030 whole entry, looked up): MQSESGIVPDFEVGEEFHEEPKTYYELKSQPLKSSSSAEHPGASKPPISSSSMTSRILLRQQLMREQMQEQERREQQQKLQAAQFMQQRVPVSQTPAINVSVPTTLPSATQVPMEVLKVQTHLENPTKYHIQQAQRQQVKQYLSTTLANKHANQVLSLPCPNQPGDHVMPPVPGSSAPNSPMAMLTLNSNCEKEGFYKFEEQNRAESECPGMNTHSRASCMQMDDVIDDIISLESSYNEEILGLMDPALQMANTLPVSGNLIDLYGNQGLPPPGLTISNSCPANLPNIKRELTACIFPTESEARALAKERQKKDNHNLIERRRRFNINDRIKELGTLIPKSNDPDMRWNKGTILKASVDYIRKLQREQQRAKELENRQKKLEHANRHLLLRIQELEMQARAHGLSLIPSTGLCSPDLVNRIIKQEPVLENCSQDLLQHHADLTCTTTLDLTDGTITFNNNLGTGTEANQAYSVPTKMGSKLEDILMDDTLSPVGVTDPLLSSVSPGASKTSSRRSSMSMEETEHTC

Compound | IC50
O=C1OC(c2ccc(Cl)cc2Cl)=N/C1=C\c1ccc([N+](=O)[O-])o1 | inactive
COc1ccc(S(=O)(=O)CCC(=O)Nc2nc3ccc(OC)cc3s2)cc1 | > 4550 nM (inactive)
Cc1cccc(C(=O)Nc2c3c(nn2-c2ccc(F)cc2)CSC3)c1 | > 5530 nM (inactive)
C[C@@H](O)[C@@H]1NC(=O)[C@H]2CN(C(=O)NCc3ccccc3)CCN2C1=O | > 2160 nM (inactive)
Cc1cc2c(c(=O)[nH]1)C(=O)O/C2=C\c1ccco1 | 15.3 nM
Oc1ccc(CCNc2cc(-c3cccs3)ncn2)cc1 | > 6700 nM (inactive)
O=C(c1ccc(=O)oc1)N1CCc2ccccc21 | inactive
COCCCNC(=O)/C(C#N)=C/c1ccc(-c2ccc(C(=O)O)c(Cl)c2)o1 | inactive
NC(=O)COC(=O)/C=C/c1ccc(I)o1 | inactive
Cc1ccc2[nH]c(=O)c(=O)[nH]c2c1 | > 12100 nM (inactive)
CN(C)/C=C/C=C/C(=O)C1CCC/C(=C\C=C\N(C)C)C1=O (stereo not given) | 85 nM
O=C(O)c1cc(C(=O)O)cc(-c2ccc(/C=N\n3cnnc3)o2)c1 | inactive
OC[C@H]1OC([S-])[C@H](O)[C@@H](O)[C@@H]1O.[Au+] (stereo not given in full) | inactive
CC(=O)CC1=C(C(=O)O)N2C(=O)C(N)C2SC1 (stereo not given) | > 6480 nM (inactive)
NC(=O)c1ccc(N=Cc2cc3c(cc2[N+](=O)[O-])OCO3)cc1 | inactive
O=C(Cn1ncn2cccc2c1=O)N1CCc2ccccc2C1 | > 6480 nM (inactive)
COc1c(O)cc(O)cc1O | inactive
CCOC(=O)N1CCN(C(=S)Nc2ccc(OCC)cc2)CC1 | inactive
O=P(O)(O)C(Sc1ccc(Cl)cc1)P(=O)(O)O | 62.6 nM
Cc1cc(OCCOCCN2CCNCC2)ccc1Cl | > 6480 nM (inactive)
Cc1cc(C(=O)O)ccc1-c1ccc(/C=C2/NC(=O)NC2=O)o1 | inactive
C[C@H]1C(=O)N2CCN(C(=O)NC3CCCCC3)C[C@@H]2C(=O)N1C | inactive
O=C(O)c1cc(N/N=C/c2ccc(N3CCOCC3)s2)ccc1Cl | 116 nM
O=C1N[C@@H](CSCc2ccccc2)C(=O)N2CCN(C(=O)NCc3ccccc3)C[C@H]12 | 394 nM
O=C(COc1ccccc1C(=O)OC1CCCC1=O)Nc1cccc(C(F)(F)F)c1 (stereo not given) | inactive

Compound | IC50
CCN1CCN(Cc2coc3ccccc3c2=O)CC1 | > 6480 nM (inactive)
N#CC1=c2/c(=C/c3ccco3)c(N)c(C#N)n2C(=O)C(c2ccco2)S1 (stereo not given) | 28.1 nM
O=C(O)c1cccc(N2C(=O)CC(Nc3ccc(N4CCOCC4)cc3)C2=O)c1 (stereo not given) | 242 nM
N#C/C(=C\c1ccc(-c2ccccc2C(=O)O)o1)C(=O)NCc1ccco1 | 326 nM
O=C1N[C@H](Cc2ccc(O)cc2)C(=O)N2CCN(C(=O)NCc3ccccc3)C[C@H]12 | inactive
CC(=O)Nc1ccc(N2C(=O)c3ccccc3C2(O)Cc2ccccc2)cc1 (stereo not given) | > 6480 nM (inactive)
NC(=O)c1ccc(-c2cccs2)s1 | > 7320 nM (inactive)
C/C(=N\NC(=O)Cc1cc(=O)[nH][nH]1)c1ccco1 | inactive
COc1ccc2nc(-c3ccco3)c(-c3ccco3)nc2c1 | inactive
COc1ccc(CN2CCN(Cc3ccccc3OC)CC2)cc1 | > 7330 nM (inactive)
CC[C@@H]1NC(=O)[C@H]2CN(C(=O)NC3CCCCC3)CCN2C1=O | 270 nM
C=C1c2cccc(O)c2C(O)=C2C(=O)[C@]3(O)C(O)=C(C(N)=O)C(=O)[C@@H](N(C)C)[C@@H]3[C@@H](O)[C@H]12 | 39.9 nM
NC(=O)CSc1ccc(C(N)=O)cc1[N+](=O)[O-] | inactive
C[C@@H](O)[C@@H]1NC(=O)[C@H]2CN(C(=O)NC3CCCCC3)CCN2C1=O | inactive
N#CC(C#N)=Cc1cccn1-c1ccc(C(=O)O)cc1 | inactive
O=C(NCCc1ccc(O)cc1)c1ccnc(-c2cccs2)c1 | inactive
O=C(O)CCN(CCC(=O)O)c1ccc(O)cc1 | 138 nM
CCc1ccc(CN2CCN(Cc3cc(OC)c(O)c(OC)c3)CC2)cc1 | > 5790 nM (inactive)
CC(C)N(C(=O)COC(=O)c1cc(-c2ccco2)nc2ccccc12)C(C)C | inactive
COc1cc(-c2ccnc(N)n2)ccc1NC(=O)[C@H]1COc2ccccc2O1 | inactive
CN(Cc1ccco1)S(=O)(=O)c1ccc2[nH]cc(C(=O)O)c(=O)c2c1 | inactive
CCC[C@@H]1NC(=O)[C@H]2CN(C(=O)NC3CCCCC3)CCN2C1=O | 757 nM
O=C(O)c1cc(-n2cccc2)ccc1Cl | 268 nM
Cc1oc(C(=O)O)cc1CSCCSCc1cc(C(=O)O)oc1C | > 2160 nM (inactive)
Cc1cc(CSC(=N)N)c(O)c(C)n1 | 533 nM

Compound | IC50
O=C(NCc1ccccc1)N1CCN2C(=O)[C@H]3CCCN3C(=O)[C@H]2C1 | inactive
CCOC(=O)C1C2NC(=S)N(c3cccc(Cl)c3)C1(C)Oc1c(OC)cccc12 (stereo not given) | > 5090 nM (inactive)
Cc1cncc2c(S(=O)(=O)N3CC[C@@H](NC(=O)C(O)c4ccc(F)cc4F)C3)cccc12 (stereo not given in full) | inactive
COC(=O)c1ccc(=O)c2nc3/c(=C/O)c(O)cc(=O)c3[nH]c12 | 259 nM
O=C(Nc1ccc(Cl)cc1Cl)N1CCN2C(=O)[C@@H]3CSCN3C(=O)[C@H]2C1 | inactive
O=C(c1ccncc1)N1CCN(Cc2ccccc2[N+](=O)[O-])CC1 | > 6130 nM (inactive)
C=CCNC(=O)COC(=O)c1cc(-c2ccco2)nc2ccccc12 | > 2310 nM (inactive)
O=C(COC(=O)/C=C/c1ccco1)NCc1ccco1 | 393 nM
NC(=O)c1ccc2nc(-c3cccs3)sc2c1 | > 6180 nM (inactive)
C[C@@H](OCc1ccccc1)[C@@H]1NC(=O)[C@H]2CN(C(=O)NC3CCCCC3)CCN2C1=O | inactive
CC(C)NC(=O)/C(C#N)=C/c1ccc(-c2ccc([N+](=O)[O-])cc2Br)o1 | 314 nM
Cc1ccc(C(=O)N/C(=C/c2ccc([N+](=O)[O-])o2)C(=O)O)cc1 | inactive
O=C(c1ccc2c(c1)C(=O)N(Cc1cccnc1)C2=O)c1ccc2c(c1)C(=O)N(Cc1cccnc1)C2=O | inactive
O=C1N[C@@H](Cc2ccccc2)C(=O)N2CCN(C(=O)NC3CCCCC3)C[C@H]12 | inactive
Cc1occc1C(=O)N/N=C/C=C/c1ccco1 | 11.2 nM
CNC(=O)Nc1ccc2nc(-c3ccco3)c(-c3ccco3)nc2c1 | 47.4 nM
Cc1ccccc1/C=C1\N=C(c2cc(C3=N/C(=C/c4ccccc4C)C(=O)O3)cc(C3=N/C(=C/c4ccccc4C)C(=O)O3)c2)OC1=O | inactive
Clc1ccc2c(c1)CC(c1nc(Nc3cncnc3)c3ccccc3n1)CO2 (stereo not given) | inactive
O=c1c2ccccc2nc(-c2ccccc2)n1-c1ccccc1O | > 6500 nM (inactive)
Cc1ccn2c(NCC3CCCO3)c(-c3ccc(O)cc3O)nc2c1 (stereo not given) | 80.9 nM
COCCNC(=O)COC(=O)c1cc(-c2ccco2)nc2ccccc12 | inactive
Cn1cc(-c2nc(Nc3ccc(-n4cnc(N5CCOCC5)n4)cc3)ncc2Br)cn1 | inactive
O=S(=O)(O)c1ccc(N/N=C2\CCc3ccccc32)cc1 | > 2160 nM (inactive)
Nc1cccc(N2C(=O)c3cc(S(=O)O)cc4c(N)c(S(=O)O)cc(c34)C2=O)c1 | inactive
Cc1cc(C)n(C(=O)/C=C/c2ccco2)n1 | 817 nM
